Measurements taken from patent US9597347B2, “Compositions for treating obesity and insulin resistance disorders” (President and Fellows of Harvard College, priority 2003, dated 2017).

Experiments:
[1] = system: Wild-type N2 C. elegans worms; test: Nile Red staining of fat accumulation in wild-type N2 C. elegans; format: in vivo; conditions: 100 μM; for fat mobilization (fat content of the worms): L1 worms, vehicle DMSO
C. elegans worms = test: Nile Red fat staining in C. elegans fed RNAi bacteria; format: in vivo; conditions: RNA inactivation of TOC1.8 (AMPK homolog) or F41E7.3 (COT homolog)
Description: The role of Sir2.1 in fat metabolism was shown in C. elegans worms in which Sir2.1 was RNA inactivated. Young adult worms were grown to adulthood in the presence of bacteria that carry RNAi vector alone or vector encoding Sir2.1 RNAi (R11A8.4), as described below. These worms were grown in the presence or absence of resveratrol, and stained with Nile-Red as described below.
We have examined the C. elegans database and found two gene products that are highly related to mammalian AMPK, TOC1.8 and Par2.3; five genes encoding homologs of CPT-1 and one gene encoding a homolog of COT. C. elegans worms were incubated with bacteria carrying RNAi vector alone, or interfering RNA against TOC1.8 or F41E7.3, a C. elegans homologue of COT in the presence or absence of AICAR. Fat accumulation was visualized with Nile-Red, as described below. […] Thus, AICAR/AMPK signaling to fatty acid oxidation is conserved in worms and mammalian cells.
The effect of TOC1.8 and COT inactivation was then investigated in C. elegans incubated with resveratrol. C. elegans worms were incubated with bacteria carrying RNAi vector alone, or a vector encoding TOC1.8 or COT interfering RNA in the presence or absence of resveratrol. Fat accumulation was visualized with Nile-Red, as described below.
RNAi plates were seeded with HTT5 E. coli carrying either the L4440 RNAi vector control or the specific RNAi clones T01C8.1, AMPK; R11A8.4, sir-2.1; or F41E7.6 COT in the presence or absence of 100 μM resveratrol. Young adults were transferred to plates containing the appropriate vector, Nile Red stain and drug then maintained at 25° C. Nile Red staining was assessed 24 hours after resveratrol treatment by UV microscopy.
HT115 E. Coli carrying the RNAi vector, L4440, were used for maintenance feeding. Bacteria containing experimental RNAi clones were cultured in 10 ml Luria Broth media containing 50 μg/ml ampicillin for 18 hours. 350 μl of each culture was spotted to a 60 mm dish containing NGM agar, 6 mM IPTG and 25 μg/ml carbenicillin. After overnight incubation (at room temp), Nile Red was added on top of each dish to a final concentration of 0.05 μg/ml along with the experimental compounds indicated in the figure legends. Nile Red staining was assessed after 24 hrs by UV microscopy. For each batch of RNAi clones tested, L4440 (vector alone) was included. […] All phenotypes were confirmed by at least three additional rounds of testing.

H4IIEC3 cells = test: Oxidation of 14C-palmitate in H4IIEC3 cells; format: cell-based; conditions: resveratrol 10 μM in 1% DMSO, AICAR 500 μM in H2O, metformin 1 mM in H2O; 4 hours; vehicle = 1
Description: (§1) Oxidation of 14C-palmitate to acid-soluble products (modified from H4IIEC3 cells [Witters, L. A. and B. E. Kemp, Insulin activation of acetyl-CoA carboxylase accompanied by inhibition of the 5′-AMP-activated protein kinase. J Biol Chem, 1992. 267(5): p. 2864-7] and HepG2 cells were maintained as described above. Cells (10^6 cells/T25) were seeded in a T25 flask one day prior to the experiment. On the day of the experiment cells were washed with assay buffer (114 mM NaCl, 4.7 mM KCL, 1.2 mM KH2PO4, 1.2 mM MgSO4, 11 mM glucose) before labeling with 14C-palmitate (0.4 μCi/ml) in presence of vehicle, or resveratrol (10 μM), or AICAR (500 μM) for 4 hours.
(§2) At the end of incubation, the cap of each T25 flask was replaced with a stopper and a 1′×1.5″ Whatman filter paper soaked with 250 μl 2N NaOH. Each flask was injected with 2 ml of 6N HCL, placed in a horizontal position for 10 minutes and left standing overnight. The next morning, 1 ml H2O and 61 μl NaOH were added to a glass scintillation vial and the filter papers from each T25 flask were transferred to their respective vial. 10 ml Aquasol was added to each vial and allowed to stand for 2 hours, after which the vials were vortexed to dissolve the […] and counted in the scintillation counter. The results were expressed as nmols/h/106 cells and shown as the fold effect. ^14CO2 production ranged from 0.3 to 1.8 nmols/h/106 cells. The experiment was repeated three times.

HepG2 cells = test: Oxidation of 14C-palmitate in HepG2 cells; format: cell-based; conditions: resveratrol 10 μM in 1% DMSO, AICAR 500 μM in H2O, metformin 1 mM in H2O; 4 hours; vehicle = 1
Description: as §1, §2

[2] = system: phosphorylation of AMPK on threonine 172 and of ACC on serine 79; test: Western analysis of AMPK and ACC phosphorylation in CHO-HIR cells; format: cell-based; conditions: resveratrol 12.5, 25 or 50 μM; AICAR 500 μM (positive control); 30 minutes; serum-free overnight
Description: CHO-HIR mammalian cells were washed in PBS and incubated overnight in serum-free DMEM before treatment with 500 μM AICAR (positive control) or 12.5 μM, 25 μM or 50 μM resveratrol. Cells were harvested after 30 minutes and lysates were immediately boiled in SDS and subjected to Western analysis with site-specific antibodies. Phosphorylation of AMPK at Thr172 indicates activation of the kinase. Active AMPK phosphorylates and inactivates ACC at serine 79.
CHO cells were also treated with 500 μM AICAR (positive control), DMSO, 100 nM, 500 nM, 2.5 μM, 12.5 μM, 25 μM, or 50 μM resveratrol and subject to Western Blot analysis as described above. Western blots were stripped and re-probed for phosphorylated (active) AMPK, total AMPK, phosphorylated acetyl CoA carboxylase (ACC), which is the downstream target of AMPK, and tubulin, which served as a loading control.

[3] = system: Wild-type N2 C. elegans worms; test: Nile Red staining of fat accumulation in wild-type N2 C. elegans; format: in vivo; conditions: 0, 1 or 10 mM, overnight
Description: Wild-type N2 C. elegans worms were grown on OP50 bacteria and exposed overnight to vehicle (0.1% ethanol) alone or with 10, 50 or 100 μM of resveratrol (in ethanol). Fat accumulation was visualized with Nile Red staining, as described further below and in Ashrafi K, et al. Nature 421:268-27 (2003).
Synchronized starved L1 worms were grown in the presence of Nile Red. Strains were grown on NGM plates at 25° C. for approximately 48 hours until the young adult stage was reached. 20-30 young adult worms were then washed 2× with M9 buffer and transferred to new NGM/Nile red experimental plates that contained either OP50 or HTT5 E. coli carrying the L4440 RNAi control vector. For experiments comparing the effect of nicotinamide and resveratrol on fat mobilization, OP50 plates were coated with vehicle alone or Nicotinamide (in PBS), or vehicle alone and Resveratrol (in Ethanol or DMSO).
Resveratrol (Indofine #024964) was dissolved in Ethanol or DMSO to a 10 mM stock solution. Resveratrol was added to 60 mm NGM agar dishes containing either OP50 or RNAi expressing bacteria (HT115) to a final concentration of 10 μm, 50 μm, and 100 μM. Nile Red was also added to plates to a final concentration of 0.05 μg/ml. Nicotinamide (Supelco #47865-U) was diluted in PBS including Nile Red and added to […] dishes containing OP50 to a final concentration of 1 mM, 10 mM, or 100 mM.
Nile Red: Nile Red Powder (Sigma #N-3013) was dissolved in acetone at 500 μg/ml, diluted in 1× Phosphate Buffered Saline (PBS) including appropriate drug and applied to surface of Nematode Growth Media (NGM) plates previously seeded with OP50 or RNAi bacteria, at a final concentration of 0.05 μg/ml. Fat content was monitored and recorded by fluorescence microscopy.
Nile Red Staining was visualized by using a Nikon TE2000S microscope equipped with a CY3 filter (emission 535-685 nm). Images were captured using a SPOT RT monochrome digital camera attached to the Nikon Microscope with SPOT RT software v3.5. All Nile red images were acquired using identical settings and exposure times and then changed to red palette.

[4] = system: TNF-alpha treated adipocytes; test: Radioactive glucose uptake in TNF-alpha treated, insulin resistant adipocytes; format: cell-based; conditions: resveratrol 5 μM or 15 μM; roziglitazone 4 μM (positive control); with TNF-alpha
Description: Adipocytes were treated with TNF-alpha to induce insulin resistance as described in Kabayama et al., Glycobiology 15:21-29 (2005) and Wu et al., Mol. Cell 3:151-8 (1999).

In the case of `CSc1ccc(/C=C/c2cc(O)cc(O)c2)cc1` [3,5-dihydroxy-4′-thiomethyl-trans-stilbene], the fat staining ([1]; 24 hours, control 1% v/v DMSO) is reported as “Significant reduction of fat staining”.
With `NC(=O)c1ncn([C@@H]2O[C@H](CO)[C@@H](O)[C@H]2O)c1N` [AICAR, 5-aminoimidazole-4-carboxamide-1-beta-D-ribofuranoside, reference compound] the fat mobilization (C. elegans worms) was “inhibits AICAR-stimulated fat mobilization”, the “14C-CO2 production (Fold Effect)” value (H4IIEC3 cells) was 2.3 Fold Effect and the “14C-CO2 production (Fold Effect)” value (HepG2 cells) was 5 Fold Effect. For the same compound, the “phosphorylation of AMPK (threonine 172) and ACC (serine 79)” value [2] was “stimulates phosphorylation of AMPK and ACC”.
For `CN(C)C(=N)N=C(N)N` [Metformin], the “14C-CO2 production (Fold Effect)” value (H4IIEC3 cells) was 2 Fold Effect and the “14C-CO2 production (Fold Effect)” value (HepG2 cells) was 3.5 Fold Effect.
With `O=C(/C=C/c1ccc(O)c(O)c1)c1ccc(O)cc1O` [butein, 3,4,2′,4′-Tetrahydroxychalcone] the “fat mobilization (fat content of the worms)” value ([1]; 48 hours) was “stimulate fat mobilization”.
`C(=C/c1ccccc1)/c1ccccc1` [cis-stilbene, cis-Stilbene] was tested, and the fat staining ([1]; L1 animals, 48 hours, control 2.5% v/v DMSO) was “No significant effect on worm fat staining”.
In the case of `O=c1c(O)c(-c2ccc(O)c(O)c2)oc2cc(O)ccc12` [fisetin, 3,7,3′,4′-Tetrahydroxyflavone], the “fat mobilization (fat content of the worms)” value ([1]; 48 hours) is reported as “stimulate fat mobilization”.
`NC(=O)c1cccnc1` [nicotinamide, reference compound] was tested, and the fat accumulation [3] was “concentration dependent increase in fat accumulation”.
With `Oc1cc(O)cc(/C=C/c2ccc(O)c(O)c2)c1` [piceatannol, 3,5,3′,4′-Tetrahydroxy-trans-stilbene] the “fat mobilization (fat content of the worms)” value ([1]; 48 hours) was “stimulate fat mobilization”.
For `O=c1c(O)c(-c2ccc(O)c(O)c2)oc2cc(O)cc(O)c12` [quercetin, 3,5,7,3′,4′-Pentahydroxyflavone], the “fat mobilization (fat content of the worms)” value ([1]; 48 hours) was “stimulate fat mobilization”.
For `CN(CCOc1ccc(CC2SC(=O)NC2=O)cc1)c1ccccn1` (centres unmarked) [roziglitazone, reference compound], the “radioactive glucose uptake / insulin sensitivity” value [4] was “increases the uptake of radioactive glucose”.
